Data on 20 molecules can be found in BindingDB's records for doi:10.1016/j.bmcl.2014.07.007 (Astrazeneca, 2014).

Experiment [1] deals with Phosphatidylinositol 4,5-bisphosphate 3-kinase catalytic subunit alpha isoform (Homo sapiens, UniProt P42336). The experiment is described as follows: Inhibition of human recombinant PI3Kalpha assessed as PIP3 production by AlphaScreen assay. A general note: Bead proximity is the source of the signal in Alpha formats.
The target of experiment [2] is Phosphatidylinositol 4,5-bisphosphate 3-kinase catalytic subunit beta isoform (Homo sapiens, UniProt P42338). The experiment is described as follows: Inhibition of human recombinant PI3Kbeta assessed as PIP3 production by AlphaScreen assay.
Chain of Phosphatidylinositol 4,5-bisphosphate 3-kinase catalytic subunit beta isoform (P42338 whole entry, canonical isoform): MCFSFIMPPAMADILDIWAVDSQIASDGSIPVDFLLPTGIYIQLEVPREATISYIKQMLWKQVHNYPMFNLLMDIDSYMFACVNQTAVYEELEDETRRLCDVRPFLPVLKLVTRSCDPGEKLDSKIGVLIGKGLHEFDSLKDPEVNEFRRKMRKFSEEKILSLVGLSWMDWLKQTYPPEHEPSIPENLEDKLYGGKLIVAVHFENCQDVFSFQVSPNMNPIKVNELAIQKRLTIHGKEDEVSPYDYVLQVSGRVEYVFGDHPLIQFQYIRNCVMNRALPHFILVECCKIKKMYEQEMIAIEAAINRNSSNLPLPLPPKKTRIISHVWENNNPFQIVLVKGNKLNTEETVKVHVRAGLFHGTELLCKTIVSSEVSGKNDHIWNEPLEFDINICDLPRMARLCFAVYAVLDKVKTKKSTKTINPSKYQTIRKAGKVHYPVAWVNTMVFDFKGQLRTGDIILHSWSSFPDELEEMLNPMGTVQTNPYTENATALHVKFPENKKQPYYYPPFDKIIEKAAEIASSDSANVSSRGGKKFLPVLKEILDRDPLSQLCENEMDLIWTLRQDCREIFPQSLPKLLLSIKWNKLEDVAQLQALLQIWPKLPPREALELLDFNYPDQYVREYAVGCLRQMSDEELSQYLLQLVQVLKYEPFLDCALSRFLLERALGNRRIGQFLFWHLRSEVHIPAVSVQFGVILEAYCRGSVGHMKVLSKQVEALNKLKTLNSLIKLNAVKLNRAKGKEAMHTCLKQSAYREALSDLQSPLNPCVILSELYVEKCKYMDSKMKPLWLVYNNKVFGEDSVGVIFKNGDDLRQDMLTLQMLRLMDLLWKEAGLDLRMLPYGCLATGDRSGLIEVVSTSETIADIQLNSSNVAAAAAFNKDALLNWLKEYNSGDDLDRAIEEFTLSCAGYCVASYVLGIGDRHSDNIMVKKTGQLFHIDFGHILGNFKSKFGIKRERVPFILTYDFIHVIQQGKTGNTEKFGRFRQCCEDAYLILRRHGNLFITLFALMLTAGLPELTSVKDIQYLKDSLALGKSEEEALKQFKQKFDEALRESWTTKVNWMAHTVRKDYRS

Chain of Phosphatidylinositol 4,5-bisphosphate 3-kinase catalytic subunit alpha isoform (P42336 whole entry, canonical isoform): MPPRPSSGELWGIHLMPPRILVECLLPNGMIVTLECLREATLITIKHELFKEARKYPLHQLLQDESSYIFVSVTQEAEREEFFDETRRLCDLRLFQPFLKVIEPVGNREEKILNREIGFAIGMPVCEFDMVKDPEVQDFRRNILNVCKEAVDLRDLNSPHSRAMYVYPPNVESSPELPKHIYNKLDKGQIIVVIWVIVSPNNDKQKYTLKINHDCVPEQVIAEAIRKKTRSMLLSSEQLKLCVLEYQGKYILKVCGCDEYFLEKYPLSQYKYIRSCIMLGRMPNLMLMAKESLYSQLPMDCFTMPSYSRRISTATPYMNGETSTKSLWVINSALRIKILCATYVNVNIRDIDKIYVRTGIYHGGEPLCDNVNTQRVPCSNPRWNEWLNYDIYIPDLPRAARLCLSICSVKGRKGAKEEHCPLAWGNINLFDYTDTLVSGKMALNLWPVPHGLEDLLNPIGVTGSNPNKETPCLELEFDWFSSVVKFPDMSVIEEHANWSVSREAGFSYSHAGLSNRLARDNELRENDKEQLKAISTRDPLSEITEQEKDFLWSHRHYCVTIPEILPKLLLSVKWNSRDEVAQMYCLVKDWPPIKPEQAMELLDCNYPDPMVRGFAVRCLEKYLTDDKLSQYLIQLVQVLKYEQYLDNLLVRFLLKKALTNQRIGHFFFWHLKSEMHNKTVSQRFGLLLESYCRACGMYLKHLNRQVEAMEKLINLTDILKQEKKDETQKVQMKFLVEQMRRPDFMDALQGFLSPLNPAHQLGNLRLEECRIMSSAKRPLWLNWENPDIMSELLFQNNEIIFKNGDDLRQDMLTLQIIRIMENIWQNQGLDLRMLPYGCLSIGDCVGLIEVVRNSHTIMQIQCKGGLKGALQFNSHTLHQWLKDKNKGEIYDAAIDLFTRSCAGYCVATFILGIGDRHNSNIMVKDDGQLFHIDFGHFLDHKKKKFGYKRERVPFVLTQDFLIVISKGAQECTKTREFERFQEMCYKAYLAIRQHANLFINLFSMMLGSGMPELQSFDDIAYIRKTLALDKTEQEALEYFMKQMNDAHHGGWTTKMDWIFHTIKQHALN

Consider `CC(Nc1ccccc1)c1cc(C(=O)N(C)C)cn2c(=O)cc(N3CCOCC3)nc12` (centres undefined), for which the IC50 in experiment [1] is 2.5 µM; in experiment [2], 0.068 µM.

Regarding `CC(Nc1ccccc1)c1cc(C(=O)NCCN(C)C)cn2c(=O)cc(N3CCOCC3)nc12` (centres undefined), the IC50 was determined as 2.3 µM in experiment [1] and 0.035 µM in experiment [2].

Consider `Cc1cc(C(C)Nc2ccccc2-c2nnn[nH]2)c2nc(N3CCOCC3)cc(=O)n2c1` (centres undefined), for which the concentration for half-maximal inhibition (IC50) in experiment [1] was found to be 1.41 µM; in experiment [2], 0.051 µM.

Regarding `Cc1cc(C(C)Nc2ccccc2S(=O)(=O)O)c2nc(N3CCOCC3)cc(=O)n2c1` (centres undefined), the results for the IC50 in experiment [1] and in experiment [2] were 0.33 µM and 0.03 µM, respectively.

As to `Cc1cc(C(C)Nc2cc(Cl)ccc2C(=O)O)c2nc(N3CCOCC3)cc(=O)n2c1` (centres undefined), the figures for the IC50 in experiment [1] and in experiment [2] were 1.46 µM and 0.031 µM, respectively.

Take `Cc1cc(C(C)Nc2cccc(C(=O)O)c2)c2nc(N3CCOCC3)cc(=O)n2c1` (centres undefined): the figures for the IC50 in experiment [1] and in experiment [2] were 12.1 µM and 4.8 µM, respectively.

In the case of `Cc1c(F)cccc1OC(C)c1cc(C(=O)N(C)CCO)cn2c(=O)cc(N3CCOCC3)nc12` (centres undefined), the IC50 in experiment [1] was 0.6 µM; in experiment [2], 0.046 µM.

As to `Cc1cc(OC(C)c2cc(C(=O)N(C)CCO)cn3c(=O)cc(N4CCOCC4)nc23)ccc1F` (centres undefined), the IC50 in experiment [2] amounted to 0.2 µM.

Take `COc1cccc(OC(C)c2cc(C(=O)N(C)CCO)cn3c(=O)cc(N4CCOCC4)nc23)c1` (centres undefined): the IC50 amounted to 4.5 µM in experiment [1] and 0.047 µM in experiment [2].

As to `COc1ccccc1OC(C)c1cc(C(=O)N(C)CCO)cn2c(=O)cc(N3CCOCC3)nc12` (centres undefined), the figures for the IC50 in experiment [1] and in experiment [2] were 2.5 µM and 0.4 µM, respectively.

For `CC(Oc1cccc(C#N)c1)c1cc(C(=O)N(C)CCO)cn2c(=O)cc(N3CCOCC3)nc12` (centres undefined), the IC50 in experiment [1] was 8.2 µM; in experiment [2] it was 1.7 µM.

On to `CC(Oc1ccccc1F)c1cc(C(=O)N(C)CCO)cn2c(=O)cc(N3CCOCC3)nc12` (centres undefined), for which the IC50 in experiment [1] was 3.4 µM; in experiment [2] it was 0.66 µM.

For the molecule `Cc1cccc(OC(C)c2cc(C(=O)N(C)CCO)cn3c(=O)cc(N4CCOCC4)nc23)c1` (centres undefined), the IC50 in experiment [1] came out at 9.4 µM; in experiment [2] it was 0.18 µM.

Take `Cc1ccccc1OC(C)c1cc(C(=O)N(C)CCO)cn2c(=O)cc(N3CCOCC3)nc12` (centres undefined): the IC50 in experiment [1] amounted to 1.3 µM; in experiment [2] it was 0.11 µM.

On to `CC(Oc1ccccc1)c1cc(C(=O)N(C)CCO)cn2c(=O)cc(N3CCOCC3)nc12` (centres undefined), for which the IC50 in experiment [1] is 10.1 µM; in experiment [2], 0.19 µM.

Turning to `CC(Nc1ccccc1)c1cc(C(=O)NCCN2CCNCC2)cn2c(=O)cc(N3CCOCC3)nc12` (centres undefined), the IC50 in experiment [1] was determined as 4.8 µM; in experiment [2] it was 0.076 µM.

`CC(Nc1ccccc1)c1cc(C(=O)N(C)CC(=O)O)cn2c(=O)cc(N3CCOCC3)nc12` (centres undefined): the values for the IC50 in experiment [1] and in experiment [2] were 3.8 µM and 0.34 µM, respectively.

For `CC(Nc1ccccc1)c1cc(C(=O)N2CCOCC2)cn2c(=O)cc(N3CCOCC3)nc12` (centres undefined), the values for the IC50 in experiment [1] and in experiment [2] were 6.9 µM and 0.14 µM, respectively.

`CC(Nc1ccccc1)c1cc(C(=O)N(C)CCO)cn2c(=O)cc(N3CCOCC3)nc12` (centres undefined): the IC50 in experiment [1] stood at 2.2 µM; in experiment [2], 0.058 µM.

For the molecule `CC(Nc1ccccc1)c1cc(C(=O)O)cn2c(=O)cc(N3CCOCC3)nc12` (centres undefined), the IC50 in experiment [1] was 0.61 µM; in experiment [2], 0.059 µM.

In general, IC50 refers to the point on the concentration scale where inhibition reaches its midpoint.
